Reference: patent publication US20040009904A1, “APL immunoreactive peptides, conjugates thereof and methods of treatment for aPL antibody-mediated pathologies” (priority 1995, published 2004)
Bridge positions count the residues as written; N and C are the ends. Peptide text beside a SMILES is read from it. * marks the point of attachment. FITC = O=C1OC2(c3ccc(O)cc3Oc3cc(O)ccc32)c2ccc(NC(=S)*)cc21

What was measured:
ACA-6501 [1] = experiment: Direct binding fluorescence polarization binding assay (dbFP); set-up: species or system human
Excerpt: (§1) This assay detects direct binding of the peptide to aPL antibody. Since aPL antibodies bind to β2-GPI (the antigen), the ELISA competitive inhibition assay can show inhibition due to binding to β2-GPI as well inhibition due to binding of the peptide to the aPL antibody. Because binding to antibodies is required in order for the peptide to function as a Toleragen, it is essential to establish that a peptide can directly bind to an aPL antibody. This assay is used to determine the dissociation constants for peptides that bind to two aPL antibodies, ACA-6501 and ACA-6701. While the ELISA assay is useful for high throughput screening because it requires less antibody than the Fluorescence Polarization assay, however, ELISA-positive peptides should be further evaluated by the Fluorescence Polarization assay to determine whether they are capable of directly binding with aPL antibody.
The methodology is described in PanVera Application Guide (1994), PanVera Corporation. Briefly, a trace amount of fluorescein isothiocyanate (FITC) labeled peptide (CB2*-F) is titrated with antibody (ACA 6501 or 6701) and the polarization for the sample is plotted versus the antibody concentration. Polarization was measured with the PanVera Beacon instrument. Data were fitted to Equation 1. [formula] […]

ACA-6701 = experiment: Direct binding fluorescence polarization binding assay (dbFP) and displacement kinetics; set-up: species or system human; details: for Kd: dbFP
Excerpt: as §1
The methodology is described in PanVera Application Guide (1994), PanVera Corporation. Briefly, a trace amount of fluorescein isothiocyanate (FITC) labeled peptide (CB2*-F) is titrated with antibody (ACA 6501 or 6701) and the polarization for the sample is plotted versus the antibody concentration. Polarization was measured with the PanVera Beacon instrument. Data were fitted to Equation 1. [formula]
where Y is the Y-axis value (milli-polarization units, mP), R is the total concentration of antibody receptor, PL is the polarization for free FITC-labeled peptide (F), and PH is the polarization for F complexed with R (FR). KD is the dissociation constant (reciprocal binding, constant) for F from the FR complex. For these equations to be valid, it must be true that F<<R. This titration is shown in FIGS. 22 and 23 for CB2*-F binding to ACA-6701 and ACA-6501 antibodies, respectively. […] Thus, CB2*-F binding to ACA-6701 is limited only by diffusion of these two molecules together.

[2] = tested on: affinity-purified ACA-6501 aPL antibody; experiment: Resin-bound peptide binding of affinity-purified IgG aPL antibody; set-up: species or system human; details: immunoconjugate color reaction, versus unrelated control peptide and normal IgG
Excerpt: Phage sequences obtained with affinity-purified ACA-6501 and found to be phage-ELISA-positive were synthesized on a solid support recently developed for combinatorial synthetic peptide libraries. This support, a Rapp resin, has a high peptide density and uses a hydrophilic polyethylene glycol spacer before the first amino acid is coupled. […] Similar results were obtained with the other phage-ELISA-positive peptides tested. In the experiment shown, resin peptide-bound affinity-purified ACA-6501 aPL antibody was detected by an immunoconjugate color reaction.

aPL sera = experiment: Resin-bound peptide binding survey of patient sera; set-up: species or system human
Excerpt: Two peptides were selected for aPL sera testing, one (5A12) representing the ACA-6501 screen and another one (4D3) representing the ACA-6626 screen. […] However, a significant degree of crossreactivity was detectable especially between ACA-6501 and ACA-6626.

ACA-6501 [3] = experiment: Phage-ELISA; type: binding, human; details: phage clones coated on wells, affACA-6501 2.5 μg/mL
Procedure: This method of selecting phage requires very tight binding of the insert to the screening antibody. Phage are directly coated onto wells of a microtitration plate and incubated with the screening antibody. Following washes to remove unbound antibody, an anti-human IgG alkaline phosphatase conjugate is added to bind any aPL antibodies bound to the phage. APL antibodies are then detected by adding a calorimetric substrate to the well which will react with alkaline phosphatase according to methods well known in the art.
Three mL cultures were prepared from 35 clones previously isolated with affinity purified ACA-6501 in several phage library screens as well as one fUSE 2 phage clone lacking a peptide insert which was used as a control. After centrifugation for 3 minutes at 17,000×g, 100 μL from each phage supernatant (adjusted to −2×10^11 particles/mL, based on absorbance) was added to microtitration plate wells (Falcon, Becton-Dickinson Labware, Lincoln Park, N.Y.) and allowed to incubate overnight at 4° C. Following four washes with TBS 7.4, the plate was blocked with 125 μL of 0.5% BSA/TBS for 1 hour at RT. After another four TBS washes, 100 μL of affACA-6501 previously diluted to 2.5 μg/mL in TBS/BSA was added to each well and allowed to incubate 1 hour at 37° C. Following an additional four washes, 100 μL anti-human IgG diluted 1:1000 in TBS/0.5% Tween was added to each well. After 1 hour at RT, enzyme substrate was added and the incubation allowed to proceed for 2 hours. Following the addition of 50 μL 0.2 M Na2HPO4 to stop the reaction, absorbance was measured at 550 nm in the automated plate absorbance reader. […] The sequences for these clones are showvn in Table 2.

ACA-6501 aPL antibody = experiment: Competitive binding peptide-ELISA, plates coated with tetravalent peptide ACA-6501/3B10; set-up: species or system human; details: monomeric peptide, ACA-6501 serum
Excerpt: Once ELISA-positive peptides are identified, it is necessary to quantitate their relative binding affinity to the aPL antibodies and to determine whether or not two peptides bind the same population of antibodies in a given patient serum via a peptide-competition ELISA assay. In this assay, various monomeric peptides compete with tetravalent peptides coated on a microtitration plate well. To perform the assay, the peptides to be evaluated are synthesized as monomers, ie., without the lysine branches employed in the synthesis of the tetravalent peptides, using standard Fmoc chemistry. The monomeric peptides are then purified and dissolved at known concentrations. Wells of a microtitration plate are coated with a tetravalent peptide known to bind to the aPL antibody. Serial dilutions of the monomeric peptides are incubated with a constant dilution of the aPL antibody. The dilution of the aPL antibody was previously determined by titering the antibody against the tetravalent peptide and selecting a dilution on the downslope of the titration curve. After incubating the antibody and monomeric peptides for one hour, the antibody/peptide solutions are added to the microtitration wells and a standard […] ELISA is performed. The concentration of each monomeric peptide that decreases binding of the aPL antibody with the tetravalent peptide is determined by plotting the calorimetric readings obtained for each well. The 50% inhibition point is used as the measure of the relative strength of binding for the monomeric peptides.
(A) Each well of an Immulon II plate (Dynatech Laboratories, Inc., Chantilly Va.) was coated with 100 μL of a solution containing 10 μg tetravalent peptide ACA 6501/3B10 in 50 mM sodium carbonate, pH 9.5, containing 35 mM sodium bicarbonate (Fisher Scientific, Pittsburgh, Pa., reagent grade) for at least 1 hour at RT, except for three wells used as blank controls. […]

`CC[C@H](C)[C@@H]1NC(=O)[C@@H](NC(=O)[C@@H]2CCCN2C(=O)CNC(=S)Nc2ccc3c(c2)C(=O)OC32c3ccc(O)cc3Oc3cc(O)ccc32)CSSC[C@@H](C(=O)NCC(=O)O)NC(=O)[C@H](CCCNC(=N)N)NC(=O)[C@H](CC(=O)O)NC(=O)[C@H](CCCNC(=N)N)NC(=O)[C@H](C)NC(=O)[C@H](CC(C)C)NC(=O)[C@H](CC(C)C)NC1=O` [CB2*-F, FITC-GPCILLARDRCG] ({FITC}-GPCILLARDRCG-OH; disulfide 3-11) gave a Kd (ACA-6501 [1]; dbFP titration of FIG. 24, from Equation 1, not corrected for antibody bivalency) of 0.241 µM, a Kd (ACA-6501 [1]; dbFP, multiplied by 2 to correct for antibody bivalency) of 0.482 µM and a Kd (ACA-6701; from Equation 1, not corrected for antibody bivalency) of 0.256 µM. The Kd (ACA-6701; multiplied by 2 to correct for antibody bivalency) was 0.512 µM, the “dissociation rate constant Koff” value (ACA-6701; displacement of CB2*-F from 6701 by slight excess of CB2*) was 0.0184 s⁻¹ and the “association rate constant Kon” value (ACA-6701; from KD and Koff, after correcting for antibody bivalency) was 36000 M⁻¹ s⁻¹.
With `CC[C@H](C)[C@@H]1NC(=O)[C@H](CC(C)C)NC(=O)[C@@H](NC(=O)[C@@H]2CCCN2C(=O)CNC(=O)[C@H](C)N)CSSC[C@@H](C(=O)N2CCC[C@H]2C(=O)NCC(=O)O)NC(=O)[C@H](CCCNC(=N)N)NC(=O)[C@H](CC(=O)O)NC(=O)[C@@H]2CCCN2C(=O)[C@H](C)NC(=O)[C@H](CC(C)C)NC1=O` [5A12, CLILAPDRC] the “binding of affinity-purified ACA-6501 to resin-bound peptide” value [2] was “dramatically outperformed an unrelated control peptide while not binding normal IgG”, the “pathologic sera (moderate to high GPL) with detectable peptide binding” value (aPL sera; 13 pathologic sera) was 8 of the 13 and the “control sera (low or no GPL score) with low peptide binding” value (aPL sera; 19 patient sera) was 2 out of 19. The “signal in the phage-ELISA” value (ACA-6501 [3]) was “significant signals”.
For `CC(C)C[C@@H]1NC(=O)[C@H](CC(C)C)NC(=O)[C@H](CC(C)C)NC(=O)[C@@H](NC(=O)[C@@H]2CCCN2C(=O)CNC(=O)[C@H](C)N)CSSC[C@@H](C(=O)N2CCC[C@H]2C(=O)NCC(=O)O)NC(=O)[C@H](CCCNC(=N)N)NC(=O)[C@H](CC(=O)O)NC(=O)[C@@H]2CCCN2C(=O)[C@H](C)NC1=O` [peptide 143] (H-AGPCLLLAPDRCPG-OH; disulfide 4-12), the “amount of peptide producing 50% inhibition of binding of ACA-6501 aPL antibody to tetravalent peptide ACA-6501/3B10” value (ACA-6501 aPL antibody) was 0.9 µg.
